Laboratory results published in ChEMBL document CHEMBL1138244, “Three-dimensional quantitative structure-activity relationships and activity predictions of human TRPV1 channel antagonists: comparative molecular field analysis and comparative molecular similarity index analysis of cinnamides” (J Med Chem, 2007).

Assay: Inhibition of rat human chimera TRPV1 channel expressed in CHO cells
Assay type: cell-based
For `CC(C)(C)c1ccc(/C=C/C(=O)Nc2ccc3c(c2)CCCC3)cc1`, the IC50 was 102 nM. For `O=C(/C=C/c1ccc(C(F)(F)F)nc1N1CCCCC1)Nc1ccc2cccnc2c1`, the IC50 was 1 nM and the pIC50 was 8.94. Work on `O=C(/C=C/c1ccc([N+](=O)[O-])cc1)Nc1ccc2c(c1)OCCO2` yielded an IC50 of 583 nM and a pIC50 of 6.23. With `O=C(/C=C/c1ccc(C(F)(F)F)nc1N1CCOCC1)Nc1ccc2cccnc2c1` the IC50 was 2 nM and the pIC50 was 8.78. For `O=C(/C=C/c1ccc(O)cc1)Nc1ccc2c(c1)OCCO2`, the IC50 was greater than 40000 nM and the pIC50 was 4.4. `CCCCc1ccc(/C=C/C(=O)Nc2ccc3c(c2)OCCO3)cc1` gave an IC50 of 312 nM and a pIC50 of 6.51. `CC(C)(C)c1ccc(C(=CC(=O)Nc2ccc3c(c2)OCCO3)c2ccc(C(C)(C)C)cc2)cc1` showed an IC50 of 2510 nM and a pIC50 of 5.6. `CC(C)(C)c1ccc(/C=C/C(=O)Nc2ccc3c(c2)OCC(=O)N3)cc1` showed an IC50 of 391 nM. Work on `CC(C)(C)c1ccc(/C(=C/C(=O)Nc2ccc3c(c2)OCCO3)c2ccncc2)cc1` yielded an IC50 of 119 nM and a pIC50 of 6.92. Compound `CC(C)Cc1ccc(/C=C/C(=O)Nc2ccc3c(c2)OCCO3)cc1` has an IC50 of 1010 nM and a pIC50 of 5.99. With `Cc1nc(C(F)(F)F)ccc1/C=C/C(=O)Nc1ccc2c(c1)OCCO2` the IC50 was 1110 nM and the pIC50 was 5.95. Compound `Cc1ccc(/C=C/C(=O)Nc2ccc3c(c2)OCCO3)cc1` has an IC50 of 293 nM and a pIC50 of 6.53. `CCc1ccc(/C=C/C(=O)Nc2ccc3c(c2)OCCO3)cc1` gave an IC50 of 247 nM and a pIC50 of 6.61. In the case of `O=C(/C=C/c1ccc(Cl)cc1)Nc1ccc2c(c1)OCCO2`, the IC50 is reported as 216 nM and the pIC50 is reported as 6.67. With `CC(C)(C)c1ccc(CCC(=O)Nc2ccc3c(c2)OCCO3)cc1` the IC50 was 226 nM and the pIC50 was 6.65. `CC(C)C/C(=C\C(=O)Nc1ccc2c(c1)OCCO2)c1ccc(C(C)(C)C)cc1` gave an IC50 of 41 nM and a pIC50 of 7.38. `O=C(/C=C/c1ccc(F)cc1)Nc1ccc2c(c1)OCCO2` gave an IC50 of 1470 nM and a pIC50 of 5.83. With `O=C(/C=C/c1ccc(Br)cc1)Nc1ccc2c(c1)OCCO2` the IC50 was 339 nM and the pIC50 was 6.47. For `CC(C)(C)c1ccc(/C=C/C(=O)Oc2ccc3c(c2)OCCO3)cc1`, the IC50 was 868 nM and the pIC50 was 6.06. In the case of `CC(C)(C)c1cccc(/C=C/C(=O)Nc2ccc3c(c2)OCCO3)c1`, the IC50 is reported as 548 nM and the pIC50 is reported as 6.26. For `O=C(/C=C/c1ccccc1)Nc1ccc2c(c1)OCCO2`, the IC50 was 5100 nM and the pIC50 was 5.29. In the case of `CC(C)(C)c1ccc(/C(=C/C(=O)Nc2ccc3c(c2)OCCO3)c2ccccc2)cc1`, the IC50 is reported as 48 nM and the pIC50 is reported as 7.32. `CC/C(=C\c1ccc(C(C)(C)C)cc1)C(=O)Nc1ccc2c(c1)OCCO2` gave an IC50 of 501 nM and a pIC50 of 6.3. For `CC(C)(C)c1ccc(/C=C/C(=O)Nc2ccc3c(c2)OCCO3)nc1`, the IC50 was 1060 nM and the pIC50 was 5.97. With `COc1ccccc1NC(=O)/C=C/c1ccc(C(C)(C)C)cc1` the IC50 was 859 nM and the pIC50 was 6.07. `CC(C)(C)c1ccc(/C(=C/C(=O)Nc2ccc3c(c2)OCCO3)c2cccnc2)cc1` showed an IC50 of 144 nM and a pIC50 of 6.84. For `O=C(/C=C/c1ccc(C(F)(F)F)nc1)Nc1ccc2c(c1)OCCO2`, the IC50 was 1070 nM and the pIC50 was 5.97. `COc1cccc(NC(=O)/C=C/c2ccc(C(C)(C)C)cc2)c1` gave an IC50 of 57 nM and a pIC50 of 7.24. For `CC(C)(C)c1ccc(/C=C/C(=O)Nc2ccc3cccnc3c2)cc1`, the IC50 was 3 nM. For `COc1ccc(NC(=O)/C=C/c2ccc(C(C)(C)C)cc2)cc1`, the IC50 was 166 nM and the pIC50 was 6.78. Compound `COc1ccc(/C=C/C(=O)Nc2ccc3c(c2)OCCO3)cc1` has an IC50 of 1870 nM and a pIC50 of 5.73. In the case of `CC(C)(C)c1ccc(/C=C/C(=O)Nc2ccc3c(c2)NCCC3)cc1`, the IC50 is reported as 55 nM. For `CC(C)(C)c1ccc(/C=C/C(=O)Nc2ccc3c(c2)OCCO3)c(Br)c1`, the IC50 was 157 nM and the pIC50 was 6.8. Work on `CC(C)(C)c1ccc(/C(=C/C(=O)Nc2ccc3c(c2)OCCO3)Cc2ccccc2)cc1` yielded an IC50 of 21 nM and a pIC50 of 7.69. Work on `COc1ccc(NC(=O)/C=C/c2ccc(C(C)(C)C)cc2)cc1OC` yielded an IC50 of 230 nM and a pIC50 of 6.64. In the case of `CCOC(=O)c1cc(C(C)(C)C)ccc1/C=C/C(=O)Nc1ccc2c(c1)OCCO2`, the IC50 is reported as 26 nM and the pIC50 is reported as 7.58. With `CC(C)(C)c1ccc(/C=C/C(=O)Nc2ccc3c(c2)O[C@@H](CO)CO3)cc1` the IC50 was 254 nM and the pIC50 was 6.59. For `CC(C)(C)c1ccc(/C=C/C(=O)Nc2ccc3c(c2)O[C@H](CO)CO3)cc1`, the IC50 was 216 nM and the pIC50 was 6.66. `COc1cccc(/C(=C/C(=O)Nc2ccc3c(c2)OCCO3)c2ccc(C(C)(C)C)cc2)c1` showed an IC50 of 155 nM and a pIC50 of 6.81. `CC(C)(C)c1ccc(/C=C\C(=O)Nc2ccc3c(c2)OCCO3)cc1` gave an IC50 of 1900 nM and a pIC50 of 5.72. Work on `CN(C)c1ccc(/C=C/C(=O)Nc2ccc3c(c2)OCCO3)cc1` yielded an IC50 of 1320 nM and a pIC50 of 5.88. In the case of `O=C(/C=C/c1cccc(Br)c1)Nc1ccc2c(c1)OCCO2`, the IC50 is reported as 404 nM and the pIC50 is reported as 6.39. With `O=C(/C=C/c1ccc(F)c(F)c1)Nc1ccc2c(c1)OCCO2` the IC50 was 1310 nM and the pIC50 was 5.88. Compound `CC(C)(C)c1ccc(/C(I)=C/C(=O)Nc2ccc3c(c2)OCCO3)cc1` has an IC50 of 343 nM and a pIC50 of 6.46. `O=C(/C=C/c1ccc(Cl)cc1)Nc1cccc(Cl)c1` gave an IC50 of 993 nM and a pIC50 of 6. Work on `CC(C)(C)c1ccc(/C=C/C(=O)Nc2ccc3c(c2)OC[C@H](CO)O3)cc1` yielded an IC50 of 24 nM and a pIC50 of 7.62. In the case of `O=C(/C=C/c1ccc(C(F)(F)F)cc1C(F)(F)F)Nc1ccc2c(c1)OCCO2`, the IC50 is reported as 451 nM and the pIC50 is reported as 6.35. For `COC[C@@H]1COc2cc(NC(=O)/C=C/c3ccc(C(C)(C)C)cc3)ccc2O1`, the IC50 was 1020 nM and the pIC50 was 5.99. Compound `CC(C)(C)c1ccc(/C=C/C(=O)Nc2ccc3c(c2)OC[C@@H](CNCO)O3)cc1` has an IC50 of 690 nM and a pIC50 of 6.16. For `CCC/C(=C\C(=O)Nc1ccc2c(c1)OCCO2)c1ccc(C(C)(C)C)cc1`, the IC50 was 120 nM and the pIC50 was 6.92. In the case of `CC(C)(C)c1ccc(/C=C/C(=O)Nc2ccc3oc(=O)cnc3c2)cc1`, the IC50 is reported as 18 nM. `CC(C)(C)c1ccc(/C=C/C(=O)Nc2ccc3cc[nH]c3c2)cc1` gave an IC50 of 19 nM. `CC(C)(C)c1ccc(/C=C/C(=O)Nc2cccc(OCCO)c2)cc1` showed an IC50 of 859 nM and a pIC50 of 6.07. In the case of `CC(C)(C)c1ccc(/C=C/C(=O)Nc2ccc3ccc(=O)[nH]c3c2)cc1`, the IC50 is reported as 4 nM. Compound `COc1ccccc1/C(=C/C(=O)Nc1ccc2c(c1)OCCO2)c1ccc(C(C)(C)C)cc1` has an IC50 of 153 nM and a pIC50 of 6.82. Compound `COc1ccc(/C(=C/C(=O)Nc2ccc3c(c2)OCCO3)c2ccc(C(C)(C)C)cc2)cc1` has an IC50 of 46 nM and a pIC50 of 7.34. `CC(C)(C)c1ccc(/C=C/C(=O)Nc2ccc3c(c2)OC[C@@H](COCC2CC2)O3)cc1` gave an IC50 of 329 nM and a pIC50 of 6.48. Compound `CC(C)(C)c1ccc(/C=C/C(=S)Nc2ccc3c(c2)OCCO3)cc1` has an IC50 of 392 nM and a pIC50 of 6.41. Work on `CC(C)(C)c1ccc(/C=C/C(=O)Nc2ccc3c(c2)OCCO3)c(C2CCCC2)c1` yielded an IC50 of 6 nM and a pIC50 of 8.21. In the case of `CCC(C)/C(=C\c1ccc(C(C)(C)C)cc1)C(=O)Nc1ccc2c(c1)OCCO2` (stereo unspecified), the IC50 is reported as 545 nM and the pIC50 is reported as 6.26. With `COc1cc(/C=C/C(=O)Nc2ccc3c(c2)OCCO3)cc(OC)c1OC` the IC50 was greater than 40000 nM and the pIC50 was 4.4. In the case of `CN(C(=O)/C=C/c1ccc(C(C)(C)C)cc1)c1ccc2c(c1)OCCO2`, the IC50 is reported as 19400 nM and the pIC50 is reported as 4.71. Work on `CC(C)(C)c1ccc(/C(=C\C(=O)Nc2ccc3c(c2)OCCO3)c2cccc(N)c2)cc1` yielded an IC50 of 331 nM and a pIC50 of 6.48. Work on `CC(C)(C)c1ccc(/C=C/CNc2ccc3c(c2)OCCO3)cc1` yielded an IC50 greater than 40000 nM and a pIC50 of 4.4. Compound `C/C(=C\C(=O)Nc1ccc2c(c1)OCCO2)c1ccc(C(C)(C)C)cc1` has an IC50 of 82 nM and a pIC50 of 7.09. `CC(C)(C)c1ccc(/C=C/C(=O)Nc2ccc3c(c2)NCCO3)cc1` gave an IC50 of 173 nM. With `CC(C)(C)c1ccc(/C=C/C(=O)Nc2ccc3c(c2)OCCO3)cn1` the IC50 was 183 nM and the pIC50 was 6.74. `O=C(/C=C/c1ccc(-c2ccccc2)cc1)Nc1ccc2c(c1)OCCO2` gave an IC50 greater than 40000 nM and a pIC50 of 4.4. In the case of `O=C(/C=C/c1ccc(C(F)(F)F)cc1)Nc1ccc2c(c1)OCCO2`, the IC50 is reported as 120 nM and the pIC50 is reported as 6.92. For `CC(C)(C)c1ccc(/C=C/C(=O)Nc2ccc3c(c2)OCCN3)cc1`, the IC50 was 26 nM. `CC(C)(C)c1ccc(/C(=C/C(=O)Nc2ccc3c(c2)OCCO3)c2ccc(C(F)(F)F)cc2)cc1` showed an IC50 of 47 nM and a pIC50 of 7.33. Compound `CC(C)(C)c1ccc(/C=C(/C(=O)Nc2ccc3c(c2)OCCO3)c2ccccc2)cc1` has an IC50 of 10700 nM and a pIC50 of 4.97. For `C/C(=C\c1ccc(C(C)(C)C)cc1)C(=O)Nc1ccc2c(c1)OCCO2`, the IC50 was 164 nM and the pIC50 was 6.78. For `CCOC(=O)CC/C(=C\C(=O)Nc1ccc2c(c1)OCCO2)c1ccc(C(C)(C)C)cc1`, the IC50 was 56 nM and the pIC50 was 7.25. `CC(C)(C)c1ccc(/C=C/C(=O)Nc2cccc(C(N)=O)c2)cc1` gave an IC50 of 33 nM and a pIC50 of 7.48. `O=C(/C=C/c1ccc(Cl)c(Cl)c1)Nc1ccc2c(c1)OCCO2` gave an IC50 of 449 nM and a pIC50 of 6.35. In the case of `O=C(/C=C/c1ccc(C(F)(F)F)cc1Br)Nc1ccc2c(c1)OCCO2`, the IC50 is reported as 453 nM and the pIC50 is reported as 6.34. `CC(C)(C)c1ccc(/C=C(/C(=O)Nc2ccc3c(c2)OCCO3)C2CCCC2)cc1` showed an IC50 of 15400 nM and a pIC50 of 4.81. `Cc1ccccc1/C(=C/C(=O)Nc1ccc2c(c1)OCCO2)c1ccc(C(C)(C)C)cc1` showed an IC50 of 279 nM and a pIC50 of 6.55. For `CC(C)(C)c1ccc(C(=O)CC(=O)Nc2ccc3c(c2)OCCO3)cc1`, the IC50 was 582 nM and the pIC50 was 6.23. `CN(C)C[C@@H]1COc2cc(NC(=O)/C=C/c3ccc(C(C)(C)C)cc3)ccc2O1` showed an IC50 of 665 nM and a pIC50 of 6.18. Work on `CC(C)(C)c1ccc(/C=C/C(=O)Nc2ccccc2)cc1` yielded an IC50 of 269 nM and a pIC50 of 6.57. For `CC(C)c1ccc(/C=C/C(=O)Nc2ccc3c(c2)OCCO3)cc1`, the IC50 was 98 nM and the pIC50 was 7.01. `CC(C)(C)c1ccc(/C=C/C(=O)Nc2ccc3c(c2)OC[C@@H](CN)O3)cc1` showed an IC50 of 1270 nM and a pIC50 of 5.9. `CC(C)(C)c1ccc(/C=C/C(=O)Nc2ccc3c(c2)OCCO3)cc1.Cl` showed an IC50 of 550 nM and a pIC50 of 6.26.
